Tests used:
CF-1-Mäuse [1] = test: Rotating rod test (Rotierstabtest), mice observed 30 min after dosing; assay type: in vivo
Excerpt: Dieser Test ist eine Modifikation der von N.W. Dunham und T.S. Miya in J.A. Ph. A. Sci. Ed. 46, 208 (1957) beschriebenen Methode. CF-1-Mäuse, welche aufgrund ihrer Fähigkeit ausgewählt worden sind, sich während 2 Minuten auf einem Rotierstab von 30 mm Durchmesser und 16 Umdrehungen pro Minute halten zu können, werden verwendet. Gruppen von je 8 Mäusen werden 30 Minuten nach Verabreichung der Testverbindung auf den Rotierstab verbracht und während 2 Minuten beobachtet. Diejenigen Mäuse, die sich nicht während der vollen 2 Minuten auf dem Rotierstab halten können, werden als durch die Testverbindung beeinflusst qualifiziert. Die Anzahl derjenigen Mäuse, die sich auf dem Rotierstab nicht halten können, wird in Prozent der Gesamtanzahl Mäuse in jeder Gruppe bei den verschiedenen Dosen angegeben. Diese Prozentwerte werden gegen die Dosis auf logarithmischem Papier aufgezeichnet, und der ED5o-Wert wird nach der Methode von L.C. Miller und M.L. Tainter in Proc. Soc. Exp. Biol. Med. 57, 26 (1944) ermittelt.
Der Zweck des vorliegenden Tests ist die Ueberprüfung von chemischen Verbindungen im Hinblick auf ihre Wirkung auf den Muskeltonus und/oder die muskuläre Koordination. speziell diejenige von Muskelrelaxantien, Sedativa oder Stimulantien.

CF-1-Mäuse [2] = test: Intravenous antimetrazol test (Intravenöser Antimetrazoltest), protection against Metrazol convulsions; assay type: in vivo; settings: Mus musculus, 1 h, oral dosing, Metrazol 70 mg/kg i.v. one hour later, 50% of animals without convulsions
Method: Männliche CF-1-Mäuse, welche 45-54 Tage alt sind und während ungefähr 24 Stunden vom Futter ferngehalten wurden, werden in diesem Test eingesetzt. Die Testverbindung, dispergiert in 5% Akazienöl, wird 3 Mäusen oral verabreicht und zwar bei einer Dosis, die 1/10 der im TSP-Test ermittelten Lethaldosis entspricht. Eine Stunde später wird Metrazol intravenös verabreicht (70 mg/kg: konvulsive Dosis 100 mg/kg) und die Versuchstiere während 30 Sekunden beobachtet, ob ein Schutz gegenüber den Krampfanfällen eintritt. Falls die Testverbindung oral aktiv ist, werden pro Dosis 3 Versuchstiere eingesetzt. Die Dosis, bei der 50% der Versuchstiere keinerlei Krampfanfälle erleiden, wird als ED50-Wert bezeichnet.
Gemacht Messungen: Die Anzahl der Versuchstiere, welche gegen Krampfanfälle geschützt sind.
Berechnun^qen: Falls die Prüfsubstanz aktiv ist und 3 Mäuse pro Dosis eingesetzt werden, wird der approximative ED -Wert nach der Methode von Miller und Tainter (Proc. Soc. Exp. Biol. med. 57:261 (1944)) berechnet. Falls 6 oder mehr Mäuse pro Dosis eingesetzt werden, wird der ED50--Wert sowie der 95%ige Vertrauensbereich mit Hilfe eines Computerprogramms berechnet, welches auf der Methode von D.J. Finney (Probit Analysis, Cambridge University Press. Cambridge, England, 1971) beruht.
Dieser Test eignet sich zur Evaluation von Antikonvulsiva und ist für eine Aussage bezüglich der anxiolytischen Wirkung relevant.

[3] = Mus musculus, po, 0.5 h, compounds of the invention, mice unable to stay 2 min on the rotating rod, 30 min after administration, read-out: ED50
[4] = Mus musculus, po, 0.5 h, standard compounds, mice unable to stay 2 min on the rotating rod, 30 min after administration, read-out: ED50

NC(=O)c1ncn2c1CN=C(c1ccccc1Cl)c1ccccc1-2 [Beispiel 27, 6-(2-Chlorphenyl)-4H-imidazo[1,5-a][1,4]benzodiazepin-3-carboxamid] gave an ED50 (CF-1-Mäuse [1]; [3]) of over 200 mg/kg and an ED50 (CF-1-Mäuse [2]; compounds of the invention) of 7.4 mg/kg.
Compound NC(=O)c1ncn2c1CN=C(c1ccccc1Cl)c1ccc(Cl)cc1-2 [Beispiel 31, 9-Chlor-6-(2-chlorphenyl)-4H-imidazo[1,5-a][1,4]benzodiazepin-3-carboxamid] has an ED50 (CF-1-Mäuse [1]; [3]) of over 200 mg/kg and an ED50 (CF-1-Mäuse [2]; compounds of the invention) of 0.97 mg/kg.
Work on Cc1nc(C(N)=O)c2n1-c1ccccc1C(c1ccccc1Cl)=NC2 [Beispiel 63, 6-(2-Chlorphenyl)-1-methyl-4H-imidazo[1,5-a][1,4]benzodiazepin-3-carboxamid] yielded an ED50 (CF-1-Mäuse [1]; [3]) of over 200 mg/kg and an ED50 (CF-1-Mäuse [2]; compounds of the invention) of 5.1 mg/kg.
In the case of CC(=O)NC(=O)c1ncn2c1CN=C(c1ccccc1Cl)c1ccccc1-2 [Beispiel 68, N-Acetyl-6-(2-chlorphenyl)-4H-imidazo[1,5-a][1,4]benzodiazepin-3-carboxamid], the ED50 (CF-1-Mäuse [2]; compounds of the invention) is reported as 1.3 mg/kg.
NC(=O)c1ncn2c1C(O)N=C(c1ccccc1Cl)c1ccccc1-2 (centres unmarked) [Beispiel 72, 6-(2-Chlorphenyl)-4-hydroxy-4H-imidazo[1,5-a][1,4]benzodiazepin-3-carboxamid] showed an ED50 (CF-1-Mäuse [1]; [3]) of over 200 mg/kg and an ED50 (CF-1-Mäuse [2]; compounds of the invention) of 0.86 mg/kg.
With CNC1=Nc2ccc(Cl)cc2C(c2ccccc2)=[N+]([O-])C1 [Chlordiazepoxyd, reference compound] the ED50 (CF-1-Mäuse [1]; [4]) was 33.5 mg/kg and the ED50 (CF-1-Mäuse [2]; standard compounds) was 3.9 mg/kg.
Compound CN(C)CCCN1c2ccccc2Sc2ccc(Cl)cc21 [Chlorpromazin, reference compound] has an ED50 (CF-1-Mäuse [1]; [4]) of 10 mg/kg.
Work on CN1C(=O)CN=C(c2ccccc2)c2cc(Cl)ccc21 [Diazepam, reference compound] yielded an ED50 (CF-1-Mäuse [1]; Mus musculus, po, 0.5 h) of 7.4 mg/kg and an ED50 (CF-1-Mäuse [2]; standard compounds) of 1 mg/kg.
COc1ccc2c(c1)N(C[C@H](C)CN(C)C)c1ccccc1S2 [Methotrimeprazin, reference compound] gave an ED50 (CF-1-Mäuse [1]; [4]) of 3.8 mg/kg.
For CCC1(c2ccccc2)C(=O)NC(=O)NC1=O [Natriumphenobarbital, reference compound], the ED50 (CF-1-Mäuse [2]; standard compounds) was 19 mg/kg.
“N-Acetyl-6-(2-chlorphenyl)-4H-imidazo-[1,5-a][1,4]benzodiazepin-3-carboxamid-acetylester” gave an ED50 (CF-1-Mäuse [1]; compounds of the invention, mice unable to stay 2 min on the rotating rod, 30 min after administration) of over 200 mg/kg p.o.

Reference: patent EP0135770A2, “Imidazobenzodiazepine derivatives, process for their preparation and medicaments containing them” (F. HOFFMANN-LA ROCHE & CO. Aktiengesellschaft, priority 1983, dated 1985)
